Experimental findings from patent US20250235543A1, “MODIFIED PROTEINS AND PROTEIN DEGRADERS” (Cullgen (Shanghai), Inc., priority 2021, published 2025) are described below.

Like-named read-outs stand apart in the source and are kept apart here. Where only a bound is given, the exact number is not on record here.

One test has as its system cyclin D1. Description: Cyclin D1 percentage degradation in Calu-1 cells (immunoblotting). The format is cell-based. To be noted: 16 hours. The method in brief: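 Cells were rinsed once in cold PBS and lysed in cold RIPA buffer containing protease and phosphatase inhibitors, with gentle agitation at 4° C. for 30 min. Lysates were spun at 13,000 rpm for 10 min at 4° C., protein was measured by BCA, and samples were boiled in Laemmli buffer at 99° C. for 5 min before SDS-PAGE immunoblotting.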
Background: A western blot detects proteins with antibodies after separation by electrophoresis.

Another test has as its target T1, CDK4 (Homo sapiens, UniProt P11802).
T1 construct: endogenous in cells; host or cells: Calu-1
The experiment in a line: CDK4 percentage degradation in Calu-1 cells (immunoblotting). It is filed as cell-based. To be noted: for inhibition at 10 µM: read-out: CDK4 Degradation (10 μM); for inhibition at 0.2 µM: read-out: CDK4 Degradation (200 nM). The method in brief: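 Cultured cells were rinsed once in cold PBS and lysed in cold RIPA buffer containing protease and phosphatase inhibitors, with gentle agitation at 4° C. for 30 min. Lysates were centrifuged at 13,000 rpm for 10 min at 4° C., and protein was quantified by BCA. Samples were then separated by SDS-PAGE, detected with ECL, and the CDK4 bands quantified in Image Lab.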

T1 sequence (P11802 2-303 limits assumed): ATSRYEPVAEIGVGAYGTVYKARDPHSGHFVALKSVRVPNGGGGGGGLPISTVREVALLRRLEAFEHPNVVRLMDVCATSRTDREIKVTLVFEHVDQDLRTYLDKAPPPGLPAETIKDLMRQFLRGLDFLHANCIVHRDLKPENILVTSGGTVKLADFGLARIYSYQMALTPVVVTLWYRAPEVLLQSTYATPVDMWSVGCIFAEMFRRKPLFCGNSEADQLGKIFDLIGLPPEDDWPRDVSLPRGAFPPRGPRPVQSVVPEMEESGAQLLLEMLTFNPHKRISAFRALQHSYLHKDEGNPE
T1 sequence (P24385 whole entry partner): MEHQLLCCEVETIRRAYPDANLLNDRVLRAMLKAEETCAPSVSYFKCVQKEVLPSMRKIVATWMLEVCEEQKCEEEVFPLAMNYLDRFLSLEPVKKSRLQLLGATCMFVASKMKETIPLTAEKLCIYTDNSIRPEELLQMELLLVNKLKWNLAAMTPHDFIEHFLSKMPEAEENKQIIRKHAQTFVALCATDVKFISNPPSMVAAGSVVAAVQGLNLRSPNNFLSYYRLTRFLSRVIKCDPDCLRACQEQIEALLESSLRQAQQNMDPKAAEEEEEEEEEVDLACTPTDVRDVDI
T1 sequence (Q16531 2-1140 limits assumed, further chain): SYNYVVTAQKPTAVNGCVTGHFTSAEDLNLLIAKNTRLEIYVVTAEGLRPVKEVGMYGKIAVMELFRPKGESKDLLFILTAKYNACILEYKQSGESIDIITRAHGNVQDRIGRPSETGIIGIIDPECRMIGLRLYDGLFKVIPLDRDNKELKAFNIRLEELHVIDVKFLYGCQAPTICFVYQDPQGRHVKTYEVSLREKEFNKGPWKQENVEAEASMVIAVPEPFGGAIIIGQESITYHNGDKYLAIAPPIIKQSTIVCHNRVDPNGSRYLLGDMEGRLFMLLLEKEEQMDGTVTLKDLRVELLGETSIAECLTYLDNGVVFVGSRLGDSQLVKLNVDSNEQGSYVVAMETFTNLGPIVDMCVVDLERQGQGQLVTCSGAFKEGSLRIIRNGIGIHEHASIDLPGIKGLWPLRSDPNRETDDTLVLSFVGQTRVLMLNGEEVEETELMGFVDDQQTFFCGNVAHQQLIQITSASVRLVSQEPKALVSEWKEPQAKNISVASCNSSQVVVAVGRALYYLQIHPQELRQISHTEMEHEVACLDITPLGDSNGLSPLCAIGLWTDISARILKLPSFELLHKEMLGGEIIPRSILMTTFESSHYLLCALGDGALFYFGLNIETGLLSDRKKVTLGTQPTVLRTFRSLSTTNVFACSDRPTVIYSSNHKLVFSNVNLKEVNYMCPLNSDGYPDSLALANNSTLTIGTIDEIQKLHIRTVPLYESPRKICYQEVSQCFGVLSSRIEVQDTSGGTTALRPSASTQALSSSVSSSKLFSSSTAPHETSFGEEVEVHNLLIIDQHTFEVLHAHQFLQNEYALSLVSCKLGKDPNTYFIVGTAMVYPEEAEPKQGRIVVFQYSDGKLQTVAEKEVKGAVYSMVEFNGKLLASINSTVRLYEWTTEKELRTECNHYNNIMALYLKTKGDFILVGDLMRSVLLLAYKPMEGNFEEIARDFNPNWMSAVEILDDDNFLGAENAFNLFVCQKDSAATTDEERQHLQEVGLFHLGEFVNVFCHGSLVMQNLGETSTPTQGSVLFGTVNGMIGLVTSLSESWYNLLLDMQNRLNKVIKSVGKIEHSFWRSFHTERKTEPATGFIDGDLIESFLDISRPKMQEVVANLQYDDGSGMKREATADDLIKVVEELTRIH

For the molecule `Cc1nc(NC(=O)c2ccccc2NC(=O)CCCCCCCNC(=O)CN2CCN(Cc3ccc(Nc4ncc(F)c(-c5cc(F)c6nc(C)n(C(C)C)c6c5)n4)nc3)CC2)sc1C` [CPD-278, N-(4,5-Dimethylthiazol-2-yl)-2-(8-(2-(4-((6-((5-fluoro-4-(4-fluoro-1-isopropyl-2-methyl-1H-benzo[d]imidazol-6-yl)pyrimidin-2-yl)amino)pyridin-3-yl)methyl)piperazin-1-yl)acetamido)octanamido)benzamide], the “CyclinD1 Degradation (10 μM)” value in the test with cyclin D1 was “D (protein percentage degradation < 30%)”. For the same molecule, the inhibition at 10 µM at CDK4 (Calu-1 cells, 16 hours) was below 30%.

Take `CC(=O)c1c(C)c2cnc(Nc3ccc(N4CCN(CC(=O)NCCOCCOCCC(=O)Nc5ccccc5C(=O)Nc5ccc(Cl)cn5)CC4)cn3)nc2n(C2CCCC2)c1=O` [CPD-082, 2-(3-(2-(2-(2-(4-(6-((6-Acetyl-8-cyclopentyl-5-methyl-7-oxo-7,8-dihydropyrido[2,3-d]pyrimidin-2-yl)amino)pyridin-3-yl)piperazin-1-yl)acetamido)ethoxy)ethoxy)propanamido)-N-(5-chloropyridin-2-yl)benzamide]: in the test on cyclin D1, the “CyclinD1 Degradation (200 nM)” value is reported as “A (protein percentage degradation >=80%)”. For the same molecule, the inhibition at 0.2 µM on CDK4 (Calu-1 cells, 200 nM, 16 hours) was above 80%.

Take `CC(=O)c1c(C)c2cnc(Nc3ccc(N4CCN(C(=O)CCOCCOCCOCCOCCOCCOCCNc5cccc(C(=O)Nc6nc(C)c(C)s6)c5C)CC4)cn3)nc2n(C2CCCC2)c1=O` [CPD-133, 3-((21-(4-(6-((6-Acetyl-8-cyclopentyl-5-methyl-7-oxo-7,8-dihydropyrido[2,3-d]pyrimidin-2-yl)amino)pyridin-3-yl)piperazin-1-yl)-21-oxo-3,6,9,12,15,18-hexaoxahenicosyl)amino)-N-(4,5-dimethylthiazol-2-yl)-2-methylbenzamide]: the “CyclinD1 Degradation (200 nM)” value in the test on cyclin D1 is “A (protein percentage degradation >=80%)”. Also, the inhibition at 0.2 µM on CDK4 (Calu-1, 16 h) lay in the range of 50 to 80%.

For the molecule `CC(=O)c1c(C)c2cnc(Nc3ccc(N4CCN(CC(=O)NCCNc5ccc(C)c(C(=O)Nc6nc(C)c(C)s6)c5)CC4)cn3)nc2n(C2CCCC2)c1=O` [CPD-093, 5-((2-(2-(4-(6-((6-Acetyl-8-cyclopentyl-5-methyl-7-oxo-7,8-dihydropyrido[2,3-d]pyrimidin-2-yl)amino)pyridin-3-yl)piperazin-1-yl)acetamido)ethyl)amino)-N-(4,5-dimethylthiazol-2-yl)-2-methylbenzamide], in the test on cyclin D1, the “CyclinD1 Degradation (200 nM)” value is given as “D (protein percentage degradation <30%)”. At CDK4 (Calu-1 cells, 200 nM, 16 hours), the inhibition at 0.2 µM is below 30%.

For the molecule `CC(=O)c1c(C)c2cnc(Nc3ccc(N4CCN(CC(=O)NCCOCCOCCC(=O)Nc5ccccc5C(=O)Nc5cc(C)[nH]n5)CC4)cn3)nc2n(C2CCCC2)c1=O` [CPD-074, 2-(3-(2-(2-(2-(4-(6-((6-Acetyl-8-cyclopentyl-5-methyl-7-oxo-7,8-dihydropyrido[2,3-d]pyrimidin-2-yl)amino)pyridin-3-yl)piperazin-1-yl)acetamido)ethoxy)ethoxy)propanamido)-N-(5-methyl-1H-pyrazol-3-yl)benzamide], the “CyclinD1 Degradation (200 nM)” value with cyclin D1 was “B (protein percentage degradation <80%, and >=50%)”. The inhibition at 0.2 µM on CDK4 (Calu-1 cells, 200 nM, 16 hours) was 50 to 80%.

In the case of `CC(=O)c1c(C)c2cnc(Nc3ccc(N4CCN(CC(=O)NCCOCCOCCC(=O)NC5CCCCC5C(=O)Nc5nc(C)c(C)s5)CC4)cn3)nc2n(C2CCCC2)c1=O` (stereo not drawn) [CPD-179, 2-(3-(2-(2-(2-(4-(6-((6-Acetyl-8-cyclopentyl-5-methyl-7-oxo-7,8-dihydropyrido[2,3-d]pyrimidin-2-yl)amino)pyridin-3-yl)piperazin-1-yl)acetamido)ethoxy)ethoxy)propanamido)-N-(4,5-dimethylthiazol-2-yl)cyclohexane-1-carboxamide], the “CyclinD1 Degradation (200 nM)” value with cyclin D1 is reported as “D (protein percentage degradation <30%)”. The inhibition at 0.2 µM on CDK4 (Calu-1 cells, 200 nM, 16 hours) is below 30%.

For `CC(=O)c1c(C)c2cnc(Nc3ccc(N4CCN(CC(=O)NCCOCCOCCC(=O)Nc5c(C(=O)Nc6ccc(C)cn6)ccc6[nH]ccc56)CC4)cn3)nc2n(C2CCCC2)c1=O` [CPD-361, 4-(3-(2-(2-(2-(4-(6-((6-acetyl-8-cyclopentyl-5-methyl-7-oxo-7,8-dihydropyrido[2,3-d]pyrimidin-2-yl)amino)pyridin-3-yl)piperazin-1-yl)acetamido)ethoxy)ethoxy)propanamido)-N-(5-methylpyridin-2-yl)-1H-indole-5-carboxamide], the “CyclinD1 Degradation (200 nM)” value with cyclin D1 is given as “A (protein percentage degradation >=80%)”. In addition, the inhibition at 0.2 µM at CDK4 (Calu-1 cells, 200 nM, 16 hours) lay within 50 to 80%.

`CC(=O)c1c(C)c2cnc(Nc3ccc(N4CCN(CC(=O)NCCOCCOCCC(=O)Nc5ccccc5C(=O)Nc5cc(C6CC6)n(C)n5)CC4)cn3)nc2n(C2CCCC2)c1=O` [CPD-079, 2-(3-(2-(2-(2-(4-(6-((6-Acetyl-8-cyclopentyl-5-methyl-7-oxo-7,8-dihydropyrido[2,3-d]pyrimidin-2-yl)amino)pyridin-3-yl)piperazin-1-yl)acetamido)ethoxy)ethoxy)propanamido)-N-(5-cyclopropyl-1-methyl-1H-pyrazol-3-yl)benzamide]: the “CyclinD1 Degradation (200 nM)” value in the test on cyclin D1 is recorded as “D (protein percentage degradation <30%)”. In addition, the inhibition at 0.2 µM at CDK4 (Calu-1 cells, 200 nM, 16 hours) is below 30%.

As for `Cc1nc(NC(=O)c2ccccc2NC(=O)CCOCCOCCNC(=O)CN2CCN(c3ccc(Nc4ncc5cc(C(=O)N(C)C)n(C6CCCC6)c5n4)nc3)CC2)sc1C` [CPD-295, 7-Cyclopentyl-2-((5-(4-(2-((2-(2-(3-((2-((4,5-dimethylthiazol-2-yl)carbamoyl)phenyl)amino)-3-oxopropoxy)ethoxy)ethyl)amino)-2-oxoethyl)piperazin-1-yl)pyridin-2-yl)amino)-N,N-dimethyl-7H-pyrrolo[2,3-d]pyrimidine-6-carboxamide], the “CyclinD1 Degradation (10 μM)” value with cyclin D1 is “A (protein percentage degradation >= 80%)”. Further, the inhibition at 10 µM at CDK4 (Calu-1 cells, 16 hours) fell in the range of 50 to 80%.

On to `COc1ccc(NC(=O)c2ccccc2NC(=O)COCCO[C@H]2CC[C@H](NC(=O)CN3CCN(c4ccc(Nc5ncc6c(C)c(C(C)=O)c(=O)n(C7CCCC7)c6n5)nc4)CC3)CC2)nn1` [CPD-366, 2-(2-(2-((trans-4-(2-(4-(6-((6-Acetyl-8-cyclopentyl-5-methyl-7-oxo-7,8-dihydropyrido[2,3-d]pyrimidin-2-yl)amino)pyridin-3-yl)piperazin-1-yl)acetamido)cyclohexyl)oxy)ethoxy)acetamido)-N-(6-methoxypyridazin-3-yl)benzamide], for which the “CyclinD1 Degradation (200 nM)” value in the test with cyclin D1 was “D (protein percentage degradation <30%)”. In addition, the inhibition at 0.2 µM at CDK4 (Calu-1 cells, 200 nM, 16 hours) was below 30%.

Turning to `Cc1nc(NC(=O)c2ccccc2NC(=O)CCCCCCNC(=O)CN2CCN(c3ccc(Nc4ncc(F)c(-c5cc(F)c6nc(C)n(C(C)C)c6c5)n4)nc3)CC2)sc1C` [CPD-305, N-(4,5-Dimethylthiazol-2-yl)-2-(7-(2-(4-(6-((5-fluoro-4-(4-fluoro-1-isopropyl-2-methyl-1H-benzo[d]imidazol-6-yl)pyrimidin-2-yl)amino)pyridin-3-yl)piperazin-1-yl)acetamido)heptanamido)benzamide], the “CyclinD1 Degradation (10 μM)” value with cyclin D1 is recorded as “D (protein percentage degradation < 30%)”. At CDK4 (Calu-1 cells, 16 hours), the inhibition at 10 µM is below 30%.

On to `CC(=O)c1c(C)c2cnc(Nc3ccc(N4CCN(C(=O)CCOCCOCCOCCNc5ccc(C)c(C(=O)Nc6nc(C)c(C)s6)c5)CC4)cn3)nc2n(C2CCCC2)c1=O` [CPD-111, 5-((2-(2-(2-(3-(4-(6-((6-Acetyl-8-cyclopentyl-5-methyl-7-oxo-7,8-dihydropyrido[2,3-d]pyrimidin-2-yl)amino)pyridin-3-yl)piperazin-1-yl)-3-oxopropoxy)ethoxy)ethoxy)ethyl)amino)-N-(4,5-dimethylthiazol-2-yl)-2-methylbenzamide], for which the “CyclinD1 Degradation (200 nM)” value in the test with cyclin D1 is reported as “D (protein percentage degradation <30%)”. The inhibition at 0.2 µM on CDK4 (Calu-1, 16 h) was below 30%.

With `CC(=O)c1c(C)c2cnc(Nc3ccc(N4CCN(CC(=O)NCCOCCOCCC(=O)Nc5ccc(F)cc5C(=O)Nc5nc(C)c(C)s5)CC4)cn3)nc2n(C2CCCC2)c1=O` [CPD-152, 2-(3-(2-(2-(2-(4-(6-((6-Acetyl-8-cyclopentyl-5-methyl-7-oxo-7,8-dihydropyrido[2,3-d]pyrimidin-2-yl)amino)pyridin-3-yl)piperazin-1-yl)acetamido)ethoxy)ethoxy)propanamido)-N-(4,5-dimethylthiazol-2-yl)-5-fluorobenzamide], the “CyclinD1 Degradation (200 nM)” value in the test on cyclin D1 was “A (protein percentage degradation >=80%)”. The inhibition at 0.2 µM on CDK4 (Calu-1 cells, 200 nM, 16 hours) is 50 to 80%.

Consider `CC(=O)c1c(C)c2cnc(Nc3ccc(N4CCN(CC(=O)NCCOCCOCCC(=O)Nc5ccccc5C(=O)Nc5nc(C6CC6)ns5)CC4)cn3)nc2n(C2CCCC2)c1=O` [CPD-059, 2-(3-(2-(2-(2-(4-(6-((6-Acetyl-8-cyclopentyl-5-methyl-7-oxo-7,8-dihydropyrido[2,3-d]pyrimidin-2-yl)amino)pyridin-3-yl)piperazin-1-yl)acetamido)ethoxy)ethoxy)propanamido)-N-(3-cyclopropyl-1,2,4-thiadiazol-5-yl)benzamide], for which the “CyclinD1 Degradation (200 nM)” value in the test with cyclin D1 is on record as “D (protein percentage degradation <30%)”. The inhibition at 0.2 µM on CDK4 (Calu-1 cells, 200 nM, 16 hours) is below 30%.

Regarding `CC(=O)c1c(C)c2cnc(Nc3ccc(N4CCN(CC(=O)NCCOCCOCCC(=O)Nc5cc(N(C)C)ccc5C(=O)Nc5nc(C)c(C)s5)CC4)cn3)nc2n(C2CCCC2)c1=O` [CPD-155, 2-(3-(2-(2-(2-(4-(6-((6-Acetyl-8-cyclopentyl-5-methyl-7-oxo-7,8-dihydropyrido[2,3-d]pyrimidin-2-yl)amino)pyridin-3-yl)piperazin-1-yl)acetamido)ethoxy)ethoxy)propanamido)-4-(dimethylamino)-N-(4,5-dimethylthiazol-2-yl)benzamide], in the test on cyclin D1, the “CyclinD1 Degradation (200 nM)” value is “A (protein percentage degradation >=80%)”. For the same molecule, the inhibition at 0.2 µM on CDK4 (Calu-1 cells, 200 nM, 16 hours) fell in the range of 50 to 80%.
